Test results taken from patent publication US11053204B2, “Pyrimidinyloxy benzene derivatives as herbicides” (FMC Corporation, priority 2015, dated 2021).

Columns and labels:
Type in all cases: in vivo
[1] = system: Italian ryegrass (Lolium multiflorum); experiment: Test A postemergence, visual injury rating; details: 0 to 100 scale, 0 is no effect, 100 is complete control, approximately 10 days
Procedure, shortened: (§1)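 Greenhouse pot test, loam/sand soil. Formulation: non-phytotoxic solvent mix plus surfactant. Pre: directed spray onto soil after sowing. Post: plants at 1–2 leaf, 2–10 cm. Rated visually vs untreated controls at ~10 d, 0 (no effect) to 100 (complete control).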

[2] = system: pigweed (Amaranthus retroflexus); experiment: Test A postemergence, visual injury rating; details: 0 to 100 scale, 0 is no effect, 100 is complete control, approximately 10 days
Procedure, shortened: as §1

[3] = system: wheat (Triticum aestivum); experiment: Test A postemergence, visual injury rating; details: 0 to 100 scale, 0 is no effect, 100 is complete control, approximately 10 days
Procedure, shortened: as §1

kochia (Kochia scoparia) [4] = experiment: Test A postemergence, visual injury rating; details: 0 to 100 scale, 0 is no effect, 100 is complete control, approximately 10 days
Procedure, shortened: as §1

[5] = system: ragweed (common ragweed, Ambrosia elatior); experiment: Test A postemergence, visual injury rating; details: 0 to 100 scale, 0 is no effect, 100 is complete control, approximately 10 days
Procedure, shortened: as §1

corn (Zea mays) = experiment: Test A postemergence, visual injury rating; details: 0 to 100 scale, 0 is no effect, 100 is complete control, approximately 10 days
Procedure, shortened: as §1

[6] = system: barnyardgrass (Echinochloa crus-galli); experiment: Test A postemergence, visual injury rating; details: 0 to 100 scale, 0 is no effect, 100 is complete control, approximately 10 days
Procedure, shortened: as §1

[7] = system: giant foxtail (Setaria faberii); experiment: Test A postemergence, visual injury rating; details: 0 to 100 scale, 0 is no effect, 100 is complete control, approximately 10 days
Procedure, shortened: as §1

[8] = system: galium (catchweed bedstraw, Galium aparine); experiment: Test A postemergence, visual injury rating; details: 0 to 100 scale, 0 is no effect, 100 is complete control, approximately 10 days
Procedure, shortened: as §1

[9] = system: blackgrass (Alopecurus myosuroides); experiment: Test A postemergence, visual injury rating; details: 0 to 100 scale, 0 is no effect, 100 is complete control, approximately 10 days
Procedure, shortened: as §1

[10] = system: Italian ryegrass (Lolium multiflorum); experiment: Test A preemergence, visual injury rating
Procedure, shortened: as §1

[11] = system: pigweed (Amaranthus retroflexus); experiment: Test A preemergence, visual injury rating
Procedure, shortened: as §1

kochia (Kochia scoparia) [12] = experiment: Test A preemergence, visual injury rating
Procedure, shortened: as §1

[13] = system: ragweed (common ragweed, Ambrosia elatior); experiment: Test A preemergence, visual injury rating
Procedure, shortened: as §1

[14] = system: barnyardgrass (Echinochloa crus-galli); experiment: Test A preemergence, visual injury rating; details: for Plant response rating, Barnyardgrass: 31 g ai/ha, 0 to 100 scale, 0 no effect, 100 complete control; for Barnyardgrass plant response rating: 125 g ai/ha, 0 to 100 scale (0 no effect, 100 complete control)
Procedure, shortened: as §1

[15] = system: giant foxtail (Setaria faberii); experiment: Test A preemergence, visual injury rating
Procedure, shortened: as §1

[16] = system: ducksalad (Heteranthera limosa); experiment: Test B flooded paddy test, plant response rating; details: 250 g ai/ha; Flood; scale of 0 to 100 where 0 is no effect and 100 is complete control; 13 to 15 days
Procedure, shortened: (§2)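 Under a constant 3 cm flood, test compounds went directly into the paddy water. Following 13 to 15 days of greenhouse growth, treated species and controls were compared by eye.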

rice (Oryza sativa) = experiment: Test B flooded paddy test, plant response rating; details: 250 g ai/ha; Flood; scale of 0 to 100 where 0 is no effect and 100 is complete control; 13 to 15 days
Procedure, shortened: as §2

[17] = system: sedge, umbrella (small-flower umbrella sedge, Cyperus difformis); experiment: Test B flooded paddy test, plant response rating; details: 250 g ai/ha; Flood; scale of 0 to 100 where 0 is no effect and 100 is complete control; 13 to 15 days
Procedure, shortened: as §2

[18] = system: barnyardgrass (Echinochloa crus-galli); experiment: Test B flooded paddy test, plant response rating; details: 250 g ai/ha; Flood; scale of 0 to 100 where 0 is no effect and 100 is complete control; 13 to 15 days
Procedure, shortened: as §2

[19] = 31 g ai/ha, 0 to 100 scale, 0 no effect, 100 complete control
[20] = 125 g ai/ha, 0 to 100 scale (0 no effect, 100 complete control)

| Compound | Ryegrass, Italian plant response rating ([1]; 31 g ai/ha) | Ryegrass, Italian plant response rating ([1]; 125 g ai/ha) | Pigweed plant response rating ([2]; 31 g ai/ha) | Pigweed plant response rating ([2]; 125 g ai/ha) | Wheat plant response rating ([3]; 31 g ai/ha) | Wheat plant response rating ([3]; 125 g ai/ha) | Kochia plant response rating (kochia (Kochia scoparia) [4]; 125 g ai/ha) | Ragweed plant response rating ([5]; 31 g ai/ha) | Ragweed plant response rating ([5]; 125 g ai/ha) | Corn plant response rating (corn (Zea mays); 31 g ai/ha) | Corn plant response rating (corn (Zea mays); 125 g ai/ha) | Barnyardgrass plant response rating ([6]; 31 g ai/ha) | Barnyardgrass plant response rating ([6]; 125 g ai/ha) | Foxtail, Giant plant response rating ([7]; 31 g ai/ha) | Foxtail, Giant plant response rating ([7]; 125 g ai/ha) | Galium plant response rating ([8]; 31 g ai/ha) | Galium plant response rating ([8]; 125 g ai/ha) | Blackgrass plant response rating ([9]; 31 g ai/ha) | Blackgrass plant response rating ([9]; 125 g ai/ha) | Plant response rating, Ryegrass, Italian [10, 19] | further results |
| --- | --- | --- | --- | --- | --- | --- | --- | --- | --- | --- | --- | --- | --- | --- | --- | --- | --- | --- | --- | --- | --- |
| CCON=C(C)c1c(Br)cccc1Oc1ncc(Cl)cn1 [Compound 95] | 0 | 0 | 10 | 20 | 0 | 0 | 0 | 0 | 0 | 0 | 10 | 0 | 30 | 0 | 60 | 10 | 40 | 0 | 10 | 0 | Kochia plant response rating (kochia (Kochia scoparia) [4]; 31 g ai/ha): 0; Ryegrass, Italian plant response rating [10, 20]: 0; Plant response rating, Pigweed [11, 19]: 0; Pigweed plant response rating [11, 20]: 40; Plant response rating, Kochia (kochia (Kochia scoparia) [12]; [19]): 0; Kochia plant response rating (kochia (Kochia scoparia) [12]; [20]): 0; Plant response rating, Ragweed [13, 19]: 0; Ragweed plant response rating [13, 20]: 0; Plant response rating, Barnyardgrass [14]: 10; Barnyardgrass plant response rating [14]: 70; Plant response rating, Foxtail, Giant [15, 19]: 0; Foxtail, Giant plant response rating [15, 20]: 50; Plant response rating, Ducksalad [16]: 30; Plant response rating, Rice (rice (Oryza sativa)): 0; Plant response rating, Sedge, Umbrella [17]: 0; Plant response rating, Barnyardgrass [18]: 0 |
| CC(C)(C)CCOC(=O)c1c(Br)cccc1Oc1ncc(Cl)cn1 [Compound 96] | 0 | 0 | 0 | 10 | 0 | 0 | 0 | 0 | 0 | 0 | 20 | 0 | 10 | 0 | 10 | 0 | 20 | 0 | 10 | 0 | Kochia plant response rating (kochia (Kochia scoparia) [4]; 31 g ai/ha): 0; Ryegrass, Italian plant response rating [10, 20]: 0; Plant response rating, Pigweed [11, 19]: 0; Pigweed plant response rating [11, 20]: 0; Plant response rating, Kochia (kochia (Kochia scoparia) [12]; [19]): 0; Kochia plant response rating (kochia (Kochia scoparia) [12]; [20]): 0; Plant response rating, Ragweed [13, 19]: 0; Ragweed plant response rating [13, 20]: 0; Plant response rating, Barnyardgrass [14]: 0; Barnyardgrass plant response rating [14]: 0; Plant response rating, Foxtail, Giant [15, 19]: 0; Foxtail, Giant plant response rating [15, 20]: 0; Plant response rating, Ducksalad [16]: 0; Plant response rating, Rice (rice (Oryza sativa)): 0; Plant response rating, Sedge, Umbrella [17]: 0; Plant response rating, Barnyardgrass [18]: 0 |
| O=C(OCC(Cl)CCl)c1c(Br)cccc1Oc1ncc(Cl)cn1 (centres unmarked) [Compound 97] | 20 | 30 | 20 | 50 | 0 | 0 | 40 | 10 | 20 | 10 | 10 | 10 | 20 | 10 | 60 | 100 | 100 | 0 | 20 | 0 | Plant response rating, Ryegrass, Italian [10, 20]: 0; Plant response rating, Pigweed [11, 19]: 0; Plant response rating, Pigweed [11, 20]: 20; Plant response rating, Kochia (kochia (Kochia scoparia) [12]; [19]): 0; Plant response rating, Kochia (kochia (Kochia scoparia) [12]; [20]): 0; Plant response rating, Ragweed [13, 19]: 0; Plant response rating, Ragweed [13, 20]: 0; Plant response rating, Barnyardgrass [14]: 0; Barnyardgrass plant response rating [14]: 10; Plant response rating, Foxtail, Giant [15, 19]: 40; Plant response rating, Foxtail, Giant [15, 20]: 70; Plant response rating, Ducksalad [16]: 70; Plant response rating, Rice (rice (Oryza sativa)): 0; Plant response rating, Sedge, Umbrella [17]: 75; Plant response rating, Barnyardgrass [18]: 0 |
| CC(=NOCCC(F)(F)F)c1c(Br)cccc1Oc1ncc(Cl)cn1 [Compound 98] | 0 | 0 | 30 | 90 | 0 | 10 | 0 | 0 | 10 | 0 | 10 | 0 | 10 | 0 | 20 | 10 | 50 | 0 | 10 | 0 | Kochia plant response rating (kochia (Kochia scoparia) [4]; 31 g ai/ha): 0; Plant response rating, Ryegrass, Italian [10, 20]: 0; Plant response rating, Pigweed [11, 19]: 0; Plant response rating, Pigweed [11, 20]: 0; Plant response rating, Kochia (kochia (Kochia scoparia) [12]; [19]): 0; Plant response rating, Kochia (kochia (Kochia scoparia) [12]; [20]): 0; Plant response rating, Ragweed [13, 19]: 0; Plant response rating, Ragweed [13, 20]: 0; Plant response rating, Barnyardgrass [14]: 0; Barnyardgrass plant response rating [14]: 30; Plant response rating, Foxtail, Giant [15, 19]: 0; Plant response rating, Foxtail, Giant [15, 20]: 40; Plant response rating, Ducksalad [16]: 0; Plant response rating, Rice (rice (Oryza sativa)): 0; Plant response rating, Sedge, Umbrella [17]: 0; Plant response rating, Barnyardgrass [18]: 0 |
| Cc1cccc(Oc2ncc(Cl)cn2)c1C(=O)OCCC(F)(F)F [Compound 99] | 0 | 50 | 10 | 40 | 0 | 30 | 40 | 10 | 30 | 0 | 50 | 30 | 80 | 50 | 90 | 20 | 70 | 30 | 80 | 0 | Kochia plant response rating (kochia (Kochia scoparia) [4]; 31 g ai/ha): 20; Plant response rating, Ryegrass, Italian [10, 20]: 30; Plant response rating, Pigweed [11, 19]: 50; Plant response rating, Pigweed [11, 20]: 90; Plant response rating, Kochia (kochia (Kochia scoparia) [12]; [19]): 40; Plant response rating, Kochia (kochia (Kochia scoparia) [12]; [20]): 80; Plant response rating, Ragweed [13, 19]: 0; Plant response rating, Ragweed [13, 20]: 10; Plant response rating, Barnyardgrass [14]: 70; Barnyardgrass plant response rating [14]: 100; Plant response rating, Foxtail, Giant [15, 19]: 90; Plant response rating, Foxtail, Giant [15, 20]: 100; Plant response rating, Ducksalad [16]: 100; Plant response rating, Rice (rice (Oryza sativa)): 40; Plant response rating, Sedge, Umbrella [17]: 90; Plant response rating, Barnyardgrass [18]: 60 |
